Measurements taken from patent US4618681A, “Aryl substituted 1H-4,5-dihydro-1,2,3-triazoles as anticonvulsants” (priority 1984, dated 1986).
Entries after “also recorded” stand apart in the source; their conditions may differ. Where two headings read alike, the source gives them in different places.

Legend:
[1] = mice; for effectiveness by the sc Pic test: Phase V, i.p.
Method: (§1) The profile of anticonvulsant activity for each substance was established by five tests: one electrical and four chemical. The electrical test employed was the maximal electroshock seizure pattern test. […] Except for the sc Strych Test, these tests measure the ability of anticonvulsants to afford complete protection against threshold seizures induced by the subcutaneous injection of the CD97 of the convulsant agent.
(§2) All convulsants were administered subcutaneously into a loose fold of skin on the back of the neck in a volume of 0.01 ml/g body weight in mice; Metrazol was injected in a volume of 0.02 ml/10 g body weight in rats. The convulsant drugs were administered at the previously determined time of peak anticonvulsant action of the drug under study. […] Except for strychnine, absence of a five-second episode of clonic spasms (threshold seizure) was taken as protection. In the case of strychnine, complete abolition of the hindleg tonic extension was taken as protection.

[2] = Phase I anticonvulsant screening (MES and scMet tests); conditions: for Anticonvulsant Activity Group Classification: Phase I screening, MES and scMet tests, mouse; for anticonvulsant potency: in words; for signs of neurological deficit: at 600 mg/kg (compound 7) and 300 mg/kg (compound 12)
[3] = Subcutaneous Metrazol Seizure Threshold Test (sc Met) in mice; conditions: for effectiveness by the sc Met test: Phase V; for effectiveness by the sc Met test / ED50 sc Met / Time of Test / time of peak effect (TPE), sc Met: i.p.
Method: (§3) All animals were allowed free access to both food (S/L Custom Lab Diet-7) and water, except when they were removed from their cages for the experimental procedure.
(§4) The drugs were administered either orally or intraperitoneally in a volume of 0.01 ml/g body weight in mice and 0.04 ml/10 g in rats. All tests were conducted at the previously determined time of peak drug effect.
as §1, §2

[4] = Time of peak effect (TPE) over several tests in mice; conditions: i.p.
Method: as §4

in vivo [5] = experiment: in vivo; design: species or system mice
Method: (§5) The profile of toxicity for each test drug was established by the following procedures: firstly, the minimal neurotoxic dose (TD50) was determined by the rotorod procedure at the time of peak neurotoxic effect. When a normal mouse is placed on a knurled rod one inch in diameter rotating at a speed of six rpm it can maintain its equilibrium for long periods of time. Neurological deficit is indicated by inability of the mouse to maintain its equilibrium for one minute in each of three trials on this rotating rod. Neurological deficit in rats is indicated by ataxia, loss of placing response and muscle tone. […] These observations also provide preliminary information essential for the subsequent determination of the HD50 and LD50. The HD50 represents the median dose at which 50% of animals lose their righting reflex.

[6] = Phase V, mice, i.p.
Method: as §1, §2

[7] = assay type: in vivo; conditions: Phase V, mice, i.p.
Method: as §1, §2

[8] = Subcutaneous Metrazol Seizure Threshold Test (sc Met) in rats; assay type: in vivo, rats (male albino, Sprague Dawley); conditions: Rattus norvegicus, po, read-out: ED50 sc Met
Method: as §4, §1, §2

[9] = mice
Method: as §3, §4, §1

in vivo [10] = conditions: mice, i.p., 24 hour period
Method: as §5

[11] = mice, i.p.
Method: as §3, §4, §1, §2

animal or person = conditions: Mus musculus, sc, read-out: sc CD97 of bicuculline
Method: as §1, §2

[12] = Time of peak effect (TPE) over several tests in rats; conditions: p.o., Compound 9: toxicity, MES and sc Met tests
Method: as §4

[13] = Mus musculus, ip, read-out: ED50 sc Met
[14] = Mus musculus, po, read-out: ED50 scMet

picrotoxin
sc CD97 of picrotoxin ([1]; subcutaneous): 3.15 mg/kg

FC(F)(F)c1cccc(N2N=NCC2c2ccccc2Cl)c1 (stereo not shown) [Compound 1, 1-m-trifluoromethylphenyl-5-(o-chlorophenyl)-Δ^2-1,2,3-triazoline]
Anticonvulsant Activity Group Classification [2]: II (Class II compounds show anticonvulsant activity at doses greater than 100 mg/kg or show activity at 100 mg/kg which is not reinforced by similar activity at 300 mg/kg)

O=[N+]([O-])c1cccc(N2N=NCC2c2ccc3ccccc3n2)c1 (stereo not shown) [Compound 15, 1-(m-Nitrophenyl)-5-(2-quinolyl)-Δ^2-1,2,3-triazoline]
Anticonvulsant Activity Group Classification [2]: II (Class II compounds show anticonvulsant activity at doses greater than 100 mg/kg or show activity at 100 mg/kg which is not reinforced by similar activity at 300 mg/kg)

CCc1ccc(N2N=NCC2c2ccccc2Cl)cc1 (stereo not shown) [Compound 3, 1-(p-Ethylphenyl)-5-(o-chlorophenyl)-Δ^2-1,2,3-triazoline]
Anticonvulsant Activity Group Classification [2]: II (Class II compounds show anticonvulsant activity at doses greater than 100 mg/kg or show activity at 100 mg/kg which is not reinforced by similar activity at 300 mg/kg)

O=C1NC(=O)C(c2ccccc2)(c2ccccc2)N1 [Phenytoin, phenytoin]
effectiveness by the sc Met test ([3]; mice): ineffective against Metrazol, bicuculline, and picrotoxin | ED50 sc Met ([3]; mice, listed as phenytion): did not protect against subcutaneous Metrazol seizures | effectiveness by the sc Pic test [1]: ineffective against Metrazol, bicuculline, and picrotoxin | TPE by all tests [4]: 2 h | Slope, regression line, HD50 (righting reflex) (in vivo [5]; mice, i.p.): 14.03 | Time of Test / time of peak toxicity, righting reflex (in vivo [5]; mouse, in vivo, ip): 12 h | effectiveness by the sc Bic test [6]: ineffective against Metrazol, bicuculline, and picrotoxin | animals protected, sc Strych test [7]: 50% | Time of Test / time of peak effect (TPE), Rotorod (mice, i.p.): 2 h

Fc1ccc(N2N=NCC2c2cccnc2)cc1Cl (stereo not shown) [Compound 18, 1-(m-chloro-p-fluorophenyl)-5-(3-pyridyl)-Δ ^2-1,2,3-triazoline]
Anticonvulsant Activity Group Classification [2]: II (Class II compounds show anticonvulsant activity at doses greater than 100 mg/kg or show activity at 100 mg/kg which is not reinforced by similar activity at 300 mg/kg)

O=[N+]([O-])c1ccccc1C1CN=NN1c1cccc(Cl)c1 (stereo not shown) [Compound 4, 1-(m-Chlorophenyl)5-(o-nitrophenyl)-Δ^2-1,2,3-triazoline]
Anticonvulsant Activity Group Classification [2]: II (Class II compounds show anticonvulsant activity at doses greater than 100 mg/kg or show activity at 100 mg/kg which is not reinforced by similar activity at 300 mg/kg)

Clc1cccc(Cl)c1C1CN=NN1c1ccc(Br)cc1 (stereo not shown) [Compound 6, 1-(p-Bromophenyl)-5-(2,6-dichlorophenyl)-Δ^2-1,2,3-triazoline]
Anticonvulsant Activity Group Classification [2]: II (Class II compounds show anticonvulsant activity at doses greater than 100 mg/kg or show activity at 100 mg/kg which is not reinforced by similar activity at 300 mg/kg)

FC(F)(F)c1cccc(N2N=NCC2c2ccncc2)c1 (stereo not shown) [Compound 17, 1-(m-trifluoromethylphenyl)-5-(4-pyridyl)-Δ^2-1,2,3-triazoline]
anticonvulsant potency [2]: most potent

CCOC(=O)c1ccc(N2N=NCC2c2ccncc2)cc1 (stereo not shown) [Compound 8, 1-(p-Ethoxycarbonyl)-5-(4-pyridyl)-Δ^2-1,2,3-triazoline]
Anticonvulsant Activity Group Classification [2]: II (Class II compounds show anticonvulsant activity at doses greater than 100 mg/kg or show activity at 100 mg/kg which is not reinforced by similar activity at 300 mg/kg)

CCCC(CCC)C(=O)O [Valproate, valproate]
ED50 [3, 13]: 149 mg/kg | ED50 [3, 14]: 388 mg/kg | Time of Test / time of peak effect (TPE), sc Met ([3]; mice): 1/4 | ED50 ([8]; rats, p.o.): 180 mg/kg | Time of Test / time of peak effect (TPE), MES ([9]; i.p.): 1/4 | HD50 (righting reflex) (in vivo [5]; mice, i.p.): 885.53 mg/kg | Slope, regression line, HD50 (righting reflex) (in vivo [5]; mice, i.p.): 12.46 | Time of Test / time of peak toxicity, righting reflex (in vivo [5]; mice, i.p.): 1/4 | LD50 (lethality) (in vivo [10]): 1104.62 mg/kg

Fc1ccc(N2N=NCC2c2ccncc2)cc1 (stereo not shown) [Compound 10, 1-(p-Fluorophenyl)-5-(4-pyridyl)Δ^2-1,2,3-triazoline]
anticonvulsant potency [2]: most potent

Clc1cccc(N2N=NCC2c2ccncc2)c1 (stereo not shown) [Compound 12, 1-(m-chlorophenyl)-5-(4-pyridyl)-Δ^2-1,2,3-triazoline]
protection ([2]; 300 mg/kg): 100% | Anticonvulsant Activity Group Classification [2]: II (Class II compounds show anticonvulsant activity at doses greater than 100 mg/kg or show activity at 100 mg/kg which is not reinforced by similar activity at 300 mg/kg) | signs of neurological deficit [2]: without any signs of neurological deficit

CCC1(C)CC(=O)NC1=O (stereo not shown) [Ethosuximide, ethosuximide]
effectiveness by the sc Met test ([3]; mice): effective by the sc Met, sc Bic, and sc Pic tests | ED50 sc Met ([3]; mice): 130.35 mg/kg | ED50 scMet ([3]; mice, p.o.): 192.71 mg/kg | effectiveness by the sc Pic test [1]: effective by the sc Met, sc Bic, and sc Pic tests | Time of Test / time of peak effect (TPE), sc Met [11]: 1/2 | ED50 ([8]; rats, p.o.): 54 mg/kg | Time of Test / time of peak effect (TPE), MES ([9]; i.p.): 1/2 | Slope, regression line, HD50 (righting reflex) (in vivo [5]; mouse, in vivo, ip): 16.43 | Time of Test / time of peak toxicity, righting reflex (in vivo [5]; mouse, in vivo, ip): 1/2 | effectiveness by the sc Bic test [6]: had to be given in toxic doses to protect against sc Bic seizures | animals protected, sc Strych test [7]: ≤ 62% | Time of Test / time of peak effect (TPE), Rotorod (mouse, in vivo, ip): 1/2 | TD50 (rotorod) (mouse, in vivo, po): 879.21 mg/kg

FC(F)(F)c1ccc(N2N=NCC2c2ccncc2)cc1 (stereo not shown) [Compound 16, 1-(p-trifluoromethylphenyl)-5-(4-pyridyl)-Δ^2-1,2,3-triazoline]
anticonvulsant potency [2]: most potent

c1ccc(N2N=NCC2c2ccncc2)cc1 (stereo not shown) [Compound 7, 1-(Phenyl)-5-(4-pyridyl)-Δ^2-1,2,3-triazoline]
protection ([2]; 600 mg/kg): 100% | Anticonvulsant Activity Group Classification [2]: II (Class II compounds show anticonvulsant activity at doses greater than 100 mg/kg or show activity at 100 mg/kg which is not reinforced by similar activity at 300 mg/kg) | signs of neurological deficit [2]: without any signs of neurological deficit

Cc1ccc(N2N=NCC2c2ccncc2)cc1 (stereo not shown) [Compound 11, 1-(p-Methylphenyl)-5-(4-pyridyl)-Δ^2-1,2,3-triazoline]
Anticonvulsant Activity Group Classification [2]: II (Class II compounds show anticonvulsant activity at doses greater than 100 mg/kg or show activity at 100 mg/kg which is not reinforced by similar activity at 300 mg/kg)

CN1CCc2cc3c(cc2[C@H]1[C@@H]1OC(=O)c2c1ccc1c2OCO1)OCO3 [bicuculline]
ED97 (animal or person): 2.7 mg/kg

c1ccc(N2N=NCC2c2ccccn2)cc1 (stereo not shown) [Compound 13, 1-(phenyl)-5-(2-pyridyl)-Δ^2-1,2,3-triazoline]
Anticonvulsant Activity Group Classification [2]: II (Class II compounds show anticonvulsant activity at doses greater than 100 mg/kg or show activity at 100 mg/kg which is not reinforced by similar activity at 300 mg/kg)

C1CCc2nnnn2CC1 [Metrazol, pentylenetetrazole]
ED97 ([3]; Mus musculus, sc, read-out: sc CD97 of Metrazol): 85 mg/kg

O=[N+]([O-])c1cccc(N2N=NCC2c2ccc(Cl)cc2Cl)c1 (stereo not shown) [Compound 5, 1-(m-Nitrophenyl)-5-(2,4-dichlorophenyl)-Δ^2-1,2,3-triazoline]
Anticonvulsant Activity Group Classification [2]: II (Class II compounds show anticonvulsant activity at doses greater than 100 mg/kg or show activity at 100 mg/kg which is not reinforced by similar activity at 300 mg/kg)

Clc1ccc(N2N=NCC2c2ccccn2)cc1 (stereo not shown) [Compound 14, 1-(p-Chlorophenyl)-5-(2-pyridyl)-Δ^2-1,2,3-triazoline]
Anticonvulsant Activity Group Classification [2]: II (Class II compounds show anticonvulsant activity at doses greater than 100 mg/kg or show activity at 100 mg/kg which is not reinforced by similar activity at 300 mg/kg)

CCC1(c2ccccc2)C(=O)NC(=O)NC1=O [Phenobarbital, phenobarbital]
ED50 [3, 13]: 13.2 mg/kg | ED50 [3, 14]: 12.6 mg/kg | Time of Test / time of peak effect (TPE), sc Met ([3]; mice): 1 h | effectiveness by the sc Pic test [1]: effective against sc Met, sc Bic, and sc Pic in nontoxic doses | ED50 [8]: 11.6 mg/kg | ED50 MES ([9]; i.p.): 21.78 mg/kg | Time of Test / time of peak effect (TPE), MES ([9]; i.p.): 1 h | ED50 MES ([9]; p.o.): 20.09 mg/kg | TPE [12]: five | Slope, regression line, HD50 (righting reflex) (in vivo [5]; mice, i.p.): 8.41 | effectiveness by the sc Bic test [6]: effective against sc Met, sc Bic, and sc Pic in nontoxic doses | effectiveness by the sc Strych test [7]: had to be given in toxic doses in order to protect; also recorded: effective in toxic doses

FC(F)(F)c1ccc(N2N=NCC2c2ccccc2Cl)cc1 (stereo not shown) [Compound 2]
Anticonvulsant Activity Group Classification [2]: II (Class II compounds show anticonvulsant activity at doses greater than 100 mg/kg or show activity at 100 mg/kg which is not reinforced by similar activity at 300 mg/kg)
